Data published in US7902226B2, “Dehalogeno-compounds” (Daiichi Pharmaceutical Co., Ltd., priority 2000, dated 2011).
Values after ≈ are worked out from the molar mass of the structure shown.

What was measured:
bone marrow of mice = assay: Micronucleus test in bone marrow of mice; assay type: in vivo; conditions: Slc:ddY male mice, 24 hours after administration
Description: For the compound described as Example 1 of this invention, the micronucleus test in bone marrow of mice was performed by the following method.
Mice groups, each consisting of five, six-week-old, Slc:ddY male mice, were used. The compound of this invention described as Example 1 and 7-[3-(R)-(1-aminocyclopropyl)pyrrolidin-1-yl]-6-fluoro-1-[2-(S)-fluoro-1-(R)-cyclopropyl]-8-methyl-1,4-dihydro-4-oxoquinoline-3-carboxylic acid (Reference drug 1) described in PCT/JP96/00208 were dissolved in and diluted with 0.1 mol/l NaOH/saline solution. The 0.1 mol/l NaOH/saline solvent was used as a control, and as a positive Reference drug, a drug solution, prepared by dissolving and diluting cyclophosphamide (CP) in saline solution, was used. All drug solutions were disinfected by filtration through Mylex GS 0.22 μm filters. With each drug solution, a single intravenous dose of 10 ml/kg was administered at an administration rate of 0.2 ml/min. 24 hours after administration, […] were collected from the femur bone, the smear preparations were prepared, and these were dyed with […].

S. flexneri, 2A 5503 = assay: Antibacterial activity (MIC), standard method of the Japan Society of Chemotherapy; assay type: cell-based; conditions: Shigella flexneri, 2A5503
Description: (§1) Antibacterial activities of the compounds of this invention were measured in accordance to the standard method designated by the Japan Society of Chemotherapy, with the results shown as MIC values (microgram/ml) units in the following table. For comparison with the MIC values of the compounds of this invention, MIC values of levofloxacin (LVFX), ciprofloxacin (CPFX) and 7-[3-(R)-(1-aminocyclopropyl)pyrrolidin-1-yl]-6-fluoro-1-[2-(S)-fluoro-1-(R)-cyclopropyl]-8-methyl-1,4-dihydro-4-oxoquinoline-3-carboxylic acid (Reference drug 1), which is described in PCT/JP96/00208, are also shown in the table.

Pr. vulgalis, 08601 = assay: as above; assay type: cell-based
Description: as §1

[1] = system: Str. faecalis, ATCC 19433; assay: as above; assay type: cell-based; conditions: Enterococcus faecalis, ATCC19433
Description: as §1

Str. pyogenes, G-36 = assay: as above; assay type: cell-based; conditions: Streptococcus pyogenes, G36
Description: as §1

S. aureus, 209P = assay: as above; assay type: cell-based; conditions: Staphylococcus aureus
Description: as §1

[2] = system: Ps. maltophilia, IID-1275; assay: as above; assay type: cell-based; conditions: Stenotrophomonas maltophilia, IID1275
Description: as §1

Ps. aeruginosa, 32121 = assay: as above; assay type: cell-based; conditions: Pseudomonas aeruginosa
Description: as §1

E. coli, NIHJ = assay: as above; assay type: cell-based; conditions: Escherichia coli
Description: as §1

S. aureus, 870307 = assay: as above; assay type: cell-based; conditions: Staphylococcus aureus
Description: as §1

Str. pneumoniae J24 = assay: as above; assay type: cell-based; conditions: Streptococcus pneumoniae
Description: as §1

K. pneumoniae, Type 1 = assay: as above; assay type: cell-based; conditions: Klebsiella pneumoniae, TYPE1
Description: as §1

Ser. marcescens, 10100 = assay: as above; assay type: cell-based; conditions: Serratia marcescens
Description: as §1

S. epidermidis, 56500 = assay: as above; assay type: cell-based; conditions: Staphylococcus epidermidis
Description: as §1

Ps. aeruginosa, 32104 = assay: as above; assay type: cell-based; conditions: Pseudomonas aeruginosa
Description: as §1

[3] = Urinary excretion after oral administration (excretion test groups); assay type: in vivo; conditions: fasting rats, 20 mg/kg, urine 0-24 h
Description: An administration solution was prepared by dissolving a tested compound to a concentration of 2 mg/ml (as free compound) in distilled water, and using a 2.5 ml disposable syringe or a metal oral probe, the solution was orally administered at a dose of 20 mg/kg to fasting rats (Crj: CD IGS; male; 7-week-old; Charles River Japan, Inc.). […]
Determination of drug concentrations in liquid samples were quantified by an agar well method bioassay using the B. subtilis ATCC6051 strain as the test organism. […] After addition of the sample, the plate medium was set still for 1 hour at 4° C. to perform preliminary dispersion and then culturing at 37° C. was performed for approximately 18 hours, and the inhibition ring diameters were measured using CA-400 (Dainippon Seiki). The concentrations of the test samples were measured using a calibration curve determined by second-order regression from the logarithmic values of the drug concentration of the calibration curve serial dilutions and the inhibition ring diameters.
The urinary excretion rate (%) was determined from the amount (μg) of drug administered, amount (ml) of urine (or washing solution), and concentration (μ/ml) in urine (or washing solution): [(Urinary excretion rate]=100×([Amount of urine]×[Concentration in urine])/[Amount of drug administered] Method 3: Calculation of Pharmacokinetic Parameters

SMILES | micronucleus induction, judgment result (bone marrow of mice; single intravenous dose, 25, 50, and 100 mg/kg administration groups, versus control) | MIC (S. flexneri, 2A 5503) [µg/mL] | MIC (Pr. vulgalis, 08601) [µg/mL] | MIC [1] [µg/mL] | MIC (Str. pyogenes, G-36) [µg/mL] | MIC (S. aureus, 209P) [µg/mL] | MIC [2] [µg/mL] | MIC (Ps. aeruginosa, 32121) [µg/mL] | MIC (E. coli, NIHJ) [µg/mL] | MIC (S. aureus, 870307) [µg/mL] | MIC (Str. pneumoniae J24) [µg/mL] | MIC (K. pneumoniae, Type 1) [µg/mL] | MIC (Ser. marcescens, 10100) [µg/mL] | MIC (S. epidermidis, 56500) [µg/mL] | MIC (Ps. aeruginosa, 32104) [µg/mL] | Urinary recovery ratio (per dose) 0-24 h [3] [%] | micronucleus induction in comparison to the control (bone marrow of mice; single intravenous dose, 50 and 100 mg/kg administration groups)
Cc1c(N2CC[C@@H](C3(N)CC3)C2)ccc2c(=O)c(C(=O)O)cn([C@@H]3C[C@@H]3F)c12 [Example 1, 7-[3-(R)-(1-aminocyclopropyl)pyrrolidin-1-yl]-1-[2-(S)-fluoro-1-(R)-cyclopropyl]-1,4-dihydro-8-methyl-4-oxoquinoline-3-carboxylic acid] | negative | 0.006 (≈ 0.0156 µM) | ≤ 0.003 | 0.012 (≈ 0.0311 µM) | ≤ 0.003 | ≤ 0.003 | 0.2 (≈ 0.519 µM) | 0.025 (≈ 0.0649 µM) | ≤ 0.003 | 0.05 (≈ 0.13 µM) | ≤ 0.003 | 0.025 (≈ 0.0649 µM) | 0.025 (≈ 0.0649 µM) | ≤ 0.003 | 0.05 (≈ 0.13 µM) | 8.1 | –
Cc1c(N2CC[C@@H](C3(N)CC3)C2)c(F)cc2c(=O)c(C(=O)O)cn([C@@H]3C[C@@H]3F)c12 [Reference drug 1, 7-[3-(R)-(1-aminocyclopropyl)pyrrolidin-1-yl]-6-fluoro-1-[2-(S)-fluoro-1-(R)-cyclopropyl]-8-methyl-1,4-dihydro-4-oxoquinoline-3-carboxylic acid, reference compound] | – | ≤ 0.003 | ≤ 0.003 | 0.006 (≈ 0.0149 µM) | ≤ 0.003 | ≤ 0.003 | ≤ 0.003 | 0.012 (≈ 0.0297 µM) | ≤ 0.003 | 0.012 (≈ 0.0297 µM) | ≤ 0.003 | 0.006 (≈ 0.0149 µM) | 0.012 (≈ 0.0297 µM) | ≤ 0.003 | 0.025 (≈ 0.062 µM) | 1.8 | clearly seen
